Reference: US4923963A, “Bradykinin antagonist peptides” (Nova Technology Limited Partnership, priority 1987, dated 1990)
Read-outs that look alike come from different tables or passages of the source. Square brackets hold non-standard residues; d marks the D form. Ends that are not written are not given here. Peptide text beside a SMILES is read from it. dPhe(4-F) = N[C@H](Cc1ccc(F)cc1)C(=O)O; d2Nal = N[C@H](Cc1ccc2ccccc2c1)C(=O)O; Hyp = O=C(O)[C@@H]1C[C@@H](O)CN1; 2Thi = N[C@@H](Cc1cccs1)C(=O)O; d2Thi = N[C@H](Cc1cccs1)C(=O)O

Experiments:
isolated rat uterus = assay type: cell-based; conditions: for pA2 /RUT: activity class: not quantitated
Method in brief: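 Antagonism of bradykinin-induced contraction in isolated rat uterus (natural or induced estrus) and guinea pig ileum. Antagonist preincubated 30 s before a double-ED50 bradykinin dose, with the dose raised until the response fell to that of a single ED50. pA2 is the negative log molar antagonist concentration achieving this (Schild method).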

[1] = test system: isolated guinea pig ileum; assay type: cell-based; set-up: pA2 /GPI: activity class: scale not given here; conditions: isolated guinea pig ileum; for pA2 /GPI: activity class: not quantitated; for pA2 /GPI (antagonist potency): number of tissues in parentheses
Protocol: The bradykinin antagonists were assayed on isolated rat uterus in natural or induced estrus and on guinea pig ileum, according to the commonly accepted assay methods for bradykinin and related kinins as described by Trautschold (Handbook of Expt. Pharmacol. Vol 25, Springer Verlag, pp. 53-55, 1970) for inhibition of the myotropic activity of bradykinin. The inhibition potencies, as determined according to the commonly accepted manner described by Schild for antagonists of biologically active compounds (Br. J. Pharmacol. 2:189, 1947), and expressed as pA2 values are determined on isolated rat uterus (RUT) and isolated guinea pig ileum (GPI). In the assays, a dose-response curve is determined for the reference substance bradykinin. The dose of bradykinin which produced a half maximal contraction of tissue is the ED50 dose. An amount of bradykinin equivalent to twice the ED50 dose is administered to the tissue 30 seconds after the start of incubation of the tissue with a dose of antagonist. Doses of antagonist are increased in this protocol until pre-incubation with a dose of antagonist reduces the contraction in response to the double ED50 dose of bradykinin to response of a single ED50 dose of bradykinin. The pA2 value represents the negative logarithm of the molar concentration of antagonist necessary to reduce the response of a double ED50 dose of bradykinin to that of an ED50 dose. One unit of pA2 value represents an order of magnitude change in potency. For comparison, the negative log of the dose of BK, the dose which causes half maximal contraction of the tissues, is commonly known as the pD2 value. The pD2 value for bradykinin is 7.9 on the rat uterus and 7.4 on the guinea pig ileum.

rat blood pressure = assay: effects on blood pressure in the anesthetized rat (RBP), intraaortic and intravenous bolus; assay type: in vivo; set-up: RBP-IA: activity class / RBP-IV: activity class: scale not given here; conditions: for RBP-IV: agonist potency as percent of BK potency / RBP-IV: activity class: intravenous bolus; for % DESTR (metabolic breakdown of BK-like agonists in RBP assay): relative to BK = 100%
Protocol: The in vivo effects of bradykinin antagonists on blood pressure in the anesthetized rat are determined according to the assay described by Roblero, Ryan and Stewart (Res. Commun. Pathol. Pharmacol. 6:207, 1973). The antagonists also produce inhibition of the bradykinin response when injected as a bolus admixture of bradykinin plus antagonist by either the ia or iv route of administration.

[2] = rat blood pressure, intraaortic bolus

Molecule | pA2 /GPI: agonist potency as percent of BK potency [1] | pA2 /RUT: activity class (isolated rat uterus; isolated rat uterus) | pA2 /GPI: activity class [1] | RBP-IA: activity class (rat blood pressure; [2]) | RBP-IV: activity class (rat blood pressure; rat blood pressure) | other results
[dK]KRPPGFSPRIY [Example 62] | 1% |  |  |  |  | pA2 /RUT: agonist potency as percent of BK potency (isolated rat uterus; isolated rat uterus): 5%; RBP-IA: agonist potency as percent of BK potency (rat blood pressure; [2]): 5%; RBP-IV: agonist potency as percent of BK potency (rat blood pressure; rat blood pressure): 165%; % DESTR (metabolic breakdown of BK-like agonists in RBP assay) (rat blood pressure): 0%
RPPGFSPFRIY [Example 59, Arg-Pro-Pro-Gly-Phe-Ser-Pro-Phe-Arg-Ile-Tyr] | 21% |  |  |  |  | pA2 /RUT: agonist potency as percent of BK potency (isolated rat uterus; isolated rat uterus): 26%; RBP-IA: agonist potency as percent of BK potency (rat blood pressure; [2]): 6%; RBP-IV: agonist potency as percent of BK potency (rat blood pressure; rat blood pressure): 103%; % DESTR (metabolic breakdown of BK-like agonists in RBP assay) (rat blood pressure): 61%
N=C(N)NCCC[C@H](NC(=O)[C@H](Cc1ccccc1)NC(=O)[C@@H](Cc1cccs1)NC(=O)[C@H](CO)NC(=O)[C@H](Cc1ccccc1)NC(=O)CNC(=O)[C@@H]1CCCN1C(=O)[C@@H]1CCCN1C(=O)[C@H](N)Cc1cccs1)C(=O)O [Example 33, DThi-Pro-Pro-Gly-Phe-Ser-DThi-Phe-Arg] (H-[d2Thi]PPGFS[d2Thi]FR-OH) |  | 0 | 0 | 0 | 0 | 
N=C(N)NCCC[C@@H](N)C(=O)N[C@H](Cc1ccc2ccccc2c1)C(=O)N1CCC[C@H]1C(=O)N1CCC[C@H]1C(=O)NCC(=O)N[C@@H](Cc1ccccc1)C(=O)N[C@@H](CO)C(=O)N[C@H](Cc1cccs1)C(=O)N[C@@H](Cc1ccccc1)C(=O)N[C@@H](CCCNC(=N)N)C(=O)O [Example 39, DArg-DNal-Pro-Pro-Gly-Phe-Ser-DThi-Phe-Arg] (H-[dR][d2Nal]PPGFS[d2Thi]FR-OH) |  |  | 0 | 0 | 0 | pA2 /RUT (antagonist potency) (isolated rat uterus): 5.6
CC(C)[C@@H](N)C(=O)N1CCC[C@H]1C(=O)N1C[C@H](O)C[C@H]1C(=O)NCC(=O)N[C@@H](Cc1ccccc1)C(=O)N[C@@H](CO)C(=O)N[C@H](Cc1ccccc1)C(=O)N[C@@H](Cc1ccccc1)C(=O)N[C@@H](CCCNC(=N)N)C(=O)O [Example 15, DVal-Pro-Hyp-Gly-Phe-Ser-DPhe-Phe-Arg] (H-[dV]P[Hyp]GFS[dF]FR-OH) |  | 0 | 0 | 0 | 0 | 
CC(=O)N[C@@H](CCCNC(=N)N)C(=O)N1CCC[C@H]1C(=O)N1CCC[C@H]1C(=O)NCC(=O)N[C@@H](Cc1cccs1)C(=O)N[C@@H](CO)C(=O)N[C@H](Cc1ccccc1)C(=O)N[C@@H](Cc1cccs1)C(=O)N[C@H](CCCNC(=N)N)C(=O)O [Example 42, Ac-Arg-Pro-Pro-Gly-Thi-Ser-DPhe^7 -Thi-DArg] (Ac-RPPG[2Thi]S[dF][2Thi][dR]-OH) |  | 0 | 0 | 0 | 0 | 
CC[C@H](C)[C@H](NC(=O)[C@H](CCCNC(=N)N)NC(=O)[C@H](Cc1cccs1)NC(=O)[C@@H](Cc1ccccc1)NC(=O)[C@H](CO)NC(=O)[C@H](Cc1cccs1)NC(=O)CNC(=O)[C@@H]1C[C@@H](O)CN1C(=O)[C@@H]1CCCN1C(=O)[C@H](CCCNC(=N)N)NC(=O)[C@H](N)CCCNC(=N)N)C(=O)N[C@@H](Cc1ccc(O)cc1)C(=O)O [Example 68, DArg-Arg-Pro-Hyp-Gly-Thi-Ser-DPhe-Thi-Arg-Ile-Tyr] (H-[dR]RP[Hyp]G[2Thi]S[dF][2Thi]RIY-OH) |  |  |  |  |  | pA2 /RUT: agonist potency as percent of BK potency (isolated rat uterus): 0.02%; pA2 /GPI (antagonist potency) [1]: 6.7; RBP-IA: agonist potency as percent of BK potency (rat blood pressure; rat, in vivo): 7%
N=C(N)NCCC[C@H](NC(=O)[C@H](Cc1ccccc1)NC(=O)[C@@H](Cc1ccccc1)NC(=O)[C@H](CO)NC(=O)[C@H](Cc1ccccc1)NC(=O)CNC(=O)[C@@H]1C[C@@H](O)CN1C(=O)[C@@H]1CCCN1C(=O)[C@H](N)Cc1ccc2ccccc2c1)C(=O)O [Example 30, DNa]-Pro-Hyp-Gly-Phe-Ser-DPhe-Phe-Arg] (H-[d2Nal]P[Hyp]GFS[dF]FR-OH) | 0.1% | 0 |  | 0 | 0 | 
CC[C@H](C)[C@H](NC(=O)[C@H](CCCNC(=N)N)NC(=O)[C@H](Cc1ccccc1)NC(=O)[C@@H]1CCCN1C(=O)[C@H](CO)NC(=O)[C@H](Cc1ccccc1)NC(=O)CNC(=O)[C@@H]1CCCN1C(=O)[C@@H]1CCCN1C(=O)[C@H](CCCNC(=N)N)NC(=O)[C@H](CCCCN)NC(=O)[C@@H](N)CCCCN)C(=O)N[C@@H](Cc1ccc(O)cc1)C(=O)O [Example 61, Lys-Lys-Arg-Pro-Pro-Gly-Phe-Ser-Pro-Phe-Arg-Ile-Tyr] | 21% |  |  |  |  | pA2 /RUT: agonist potency as percent of BK potency (isolated rat uterus; isolated rat uterus): 18%; RBP-IA: agonist potency as percent of BK potency (rat blood pressure; [2]): 9%; RBP-IV: agonist potency as percent of BK potency (rat blood pressure; rat blood pressure): 497%; % DESTR (metabolic breakdown of BK-like agonists in RBP assay) (rat blood pressure): 0%
CC[C@H](C)[C@H](NC(=O)[C@H](CCCNC(=N)N)NC(=O)[C@H](Cc1ccccc1)NC(=O)[C@@H]1CCCN1C(=O)[C@H](CO)NC(=O)[C@H](Cc1ccccc1)NC(=O)CNC(=O)[C@@H]1CCCN1C(=O)[C@@H]1CCCN1C(=O)[C@H](CCCNC(=N)N)NC(=O)[C@H](N)CCCNC(=N)N)C(=O)N[C@@H](Cc1ccc(O)cc1)C(=O)O [Example 60, DArg-Arg-Pro-Pro-Gly-Phe-Ser-Pro-Phe-Arg-Ile-Tyr] (H-[dR]RPPGFSPFRIY-OH) | 34% |  |  |  |  | pA2 /RUT: agonist potency as percent of BK potency (isolated rat uterus; isolated rat uterus): 25%; RBP-IA: agonist potency as percent of BK potency (rat blood pressure; [2]): 12%; RBP-IV: agonist potency as percent of BK potency (rat blood pressure; rat blood pressure): 189%; % DESTR (metabolic breakdown of BK-like agonists in RBP assay) (rat blood pressure): 47%
CC[C@H](C)[C@H](NC(=O)[C@H](CCCNC(=N)N)NC(=O)[C@H](Cc1cccs1)NC(=O)[C@@H](Cc1ccccc1)NC(=O)[C@H](CO)NC(=O)[C@H](Cc1cccs1)NC(=O)CNC(=O)[C@@H]1CCCN1C(=O)[C@@H]1CCCN1C(=O)[C@H](CCCNC(=N)N)NC(=O)[C@H](N)CCCNC(=N)N)C(=O)N[C@@H](Cc1ccc(O)cc1)C(=O)O [Example 66, DArg-Arg-Pro-Pro-Gly-Thi-Ser-DPhe-Thi-Arg-Ile-Tyr] (H-[dR]RPPG[2Thi]S[dF][2Thi]RIY-OH) |  |  |  |  |  | pA2 /RUT: agonist potency as percent of BK potency (isolated rat uterus): 0.3%; pA2 /GPI (antagonist potency) [1]: 5.8
N=C(N)NCCC[C@H](NC(=O)[C@H](Cc1ccccc1)NC(=O)[C@@H](Cc1cccs1)NC(=O)[C@H](CO)NC(=O)[C@H](Cc1ccccc1)NC(=O)CNC(=O)[C@@H]1C[C@@H](O)CN1C(=O)[C@@H]1CCCN1C(=O)[C@H](N)Cc1ccc2ccccc2c1)C(=O)O [Example 38, DNal-Pro-Hyp-Gly-Phe-Ser-DThi-Phe-Arg] (H-[d2Nal]P[Hyp]GFS[d2Thi]FR-OH) |  | 0 | 0 |  |  | 
N=C(N)NCCC[C@H](NC(=O)[C@H](Cc1cccs1)NC(=O)[C@@H](Cc1ccccc1)NC(=O)[C@H](CO)NC(=O)[C@H](Cc1cccs1)NC(=O)CNC(=O)[C@@H]1C[C@@H](O)CN1C(=O)[C@@H]1C[C@@H](O)CN1C(=O)[C@H](N)Cc1ccc2ccccc2c1)C(=O)O [Example 26, DNal-Hyp-Hyp-Gly-Thi-Ser-DPhe-Thi-Arg] (H-[d2Nal][Hyp][Hyp]G[2Thi]S[dF][2Thi]R-OH) |  | 0 | 0 |  |  | 
N=C(N)NCCC[C@@H](N)C(=O)N1CCC[C@H]1C(=O)N1C[C@H](O)C[C@H]1C(=O)NCC(=O)N[C@@H](Cc1cccs1)C(=O)N[C@@H](CO)C(=O)N[C@H](Cc1ccccc1)C(=O)N[C@@H](Cc1cccs1)C(=O)N[C@@H](CCCNC(=N)N)C(=O)O [Example 8, DArg-Pro-Hyp-Gly-Thi-Ser-DPhe-Thi-Arg] (H-[dR]P[Hyp]G[2Thi]S[dF][2Thi]R-OH) |  |  |  |  |  | pA2 /RUT (antagonist potency) (isolated rat uterus): 5.4; pA2 /GPI (antagonist potency) [1]: 5.4
N=C(N)NCCC[C@@H](N)C(=O)N[C@@H](CCCNC(=N)N)C(=O)N1CCC[C@H]1C(=O)N1CCC[C@H]1C(=O)NCC(=O)N[C@@H](Cc1cccs1)C(=O)N[C@@H](CO)C(=O)N[C@H](Cc1ccccc1)C(=O)N[C@@H](Cc1cccs1)C(=O)N[C@H](CCCNC(=N)N)C(=O)O [Example 43, DArg-Arg-Pro-Pro-Gly-Thi-Ser-DPhe-Thi-DArg] (H-[dR]RPPG[2Thi]S[dF][2Thi][dR]-OH) |  | 0 | 0 |  |  | 
N=C(N)NCCC[C@@H](N)C(=O)N[C@H](Cc1ccc(F)cc1)C(=O)N1CCC[C@H]1C(=O)N1C[C@H](O)C[C@H]1C(=O)NCC(=O)N[C@@H](Cc1ccccc1)C(=O)N[C@@H](CO)C(=O)N[C@H](Cc1ccccc1)C(=O)N[C@@H](Cc1ccccc1)C(=O)N[C@@H](CCCNC(=N)N)C(=O)O [Example 12, DArg-FDF-Pro-Hyp-Gly-Phe-Ser-DPhe-Phe-Arg] (H-[dR][dPhe(4-F)]P[Hyp]GFS[dF]FR-OH) |  |  | 0 |  |  | pA2 /RUT (antagonist potency) (isolated rat uterus; isolated rat uterus, number of tissues in parentheses): 5.7
